Columns and labels:
Pieris brassicae [1] = test: Antifeedant activity against Pieris brassicae third-instar larvae reared on compound pre-treated Brassica oleracea L. leaf disks assessed as insect mortality at 1000 ppm measured after 6 days by conventional leaf disk method; type: functional; details: foliar
Pieris brassicae [2] = test: Antifeedant activity against Pieris brassicae third-instar larvae reared on compound pre-treated Brassica oleracea L. leaf disks assessed antifeeding rate at 1000 ppm measured after 48 hr by conventional leaf disk method; type: functional

Row | SMILES | mortality at 1000 ppm (Pieris brassicae [1]) [%] | AFI (Pieris brassicae [2]) [%]
1 | C=C1[C@@H]2[C@@H](OC(=O)C=C[C@@]2(C)[C@H]2CC(=O)OC2(C)C)[C@H](OC(C)=O)[C@@]2(C)[C@H](C(=O)O)C[C@H]3O[C@]132 [MUNRONIN F] | 0 | 0
2 | C=C1[C@@H]2[C@@H](OC(=O)C=C[C@@]2(C)[C@H]2CC(=O)OC2(C)C)[C@H](OC(C)=O)[C@@]2(C)[C@H](C3=CCNC3=O)C[C@H]3O[C@]132 [MUNRONIN D] | 10 | 28
3 | C#C[C@@H]1C[C@H]2O[C@]23C(=C)[C@@H]2[C@@H](OC(=O)C=C[C@@]2(C)[C@H]2CC(=O)OC2(C)C)[C@H](OC(C)=O)[C@@]13C [MUNRONIN E] | 10 | 37.1
4 | C=C1[C@@H]2[C@@H](OC(=O)C=C[C@@]2(C)[C@H]2CC(=O)OC2(C)C)[C@H](OC(C)=O)[C@@]2(C)[C@H](C3=CC(O)OC3=O)C[C@H]3O[C@]132 (some centres undefined) [MUNRONIN A] | 20 | 0
5 | C/C=C(\C)C(=O)O[C@H]1C[C@@H](OC(C)=O)[C@@]2(C(=O)OC)CO[C@H]3[C@@H](O)[C@@](C)([C@]45O[C@@]4(C)[C@@H]4C[C@H]5O[C@@H]5OC=C[C@@]54O)[C@H]4[C@]1(CO[C@]4(O)C(=O)OC)[C@@H]32 [AZADIRACHTIN A] | 100 | 99.5
6 | C=C1[C@@H]2[C@@H](OC(=O)C=C[C@@]2(C)[C@H]2CC(=O)OC2(C)C)[C@H](OC(C)=O)[C@@]2(C)[C@H](C3=CC(=O)OC3O)C[C@H]3O[C@]132 (some centres undefined) [MUNRONIN B] | 10 | 20.9
7 | C=C1[C@@H]2[C@@H](OC(=O)C=C[C@@]2(C)[C@H]2CC(=O)OC2(C)C)[C@H](OC(C)=O)[C@@]2(C)[C@H](C3=CCOC3=O)C[C@H]3O[C@]132 [MUNRONIN C] | 10 | 31
